The test addresses T1, γ-secretase (Mus musculus, UniProt P49769).
T1 construct: endogenous in cells; host or cells: SweAPP N2a cells (lysates of treated cells)
As to the kind of experiment: fluorometric assay for γ-secretase cleavage activity in SweAPP N2a cell lysates. Conditions: relative to untreated control. The class given is cell-based, murine. The procedure:
Cultured cells or mouse brain were lysed in ice-cold lysis buffer described above, and an aliquot corresponding to 50 μg of total protein was electrophoretically separated using 12% Tris-HCl or 16.5% Tris-tricine gels. Electrophoresed proteins were then transferred to PVDF membranes, washed in dH2O, and blocked for 1 hr at ambient temperature in Tris-buffered saline (TBS; Bio-Rad) containing 5% (w/v) non-fat dry milk. After blocking, membranes were hybridized for 1 hr at ambient temperature with various primary antibodies. Membranes were then washed 3× for 5 min each in dH2O and incubated for 1 hr at ambient temperature with the appropriate HRP-conjugated secondary antibody (1:1,000). Antibodies were obtained against the amino-terminus and carboxyl-terminus of PS1 (Chemicon, Temecula, Calif.), amino-terminus and carboxyl-terminus of APP (22C11), actin (Roche, Basel, Switzerland), Aβ (6E10, 48G) (Signet Laboratories, Dedham, Mass.), phosphor-GSK3α (ser^21, clone BK202) (Upstate, Lake Placid, N.Y.), phospho-GSK3α/β (pTyr^279/216) (Sigma), phospho-GSK-3β (Ser^9) (Sigma) and total GSK-3α/β (Sigma). […] Densitometric analysis was done as previously described using a FluorS Multiimager with Quantity One™ software (39). […] Antibodies used for Western blot included the APP-carboxyl-terminal antibody (1:50)), amino-terminal APP antibody (clone 22C11), or 6E10 (1:1,000), or actin antibody (1:1,500; as an internal reference control). γ-secretase activity was quantified in cell lysates using available kits based on secretase-specific peptides conjugated to fluorogenic reporter molecules.
Due to the implications on γ-secretase activity, luteolin's effect on SweAPP N2a cells was analyzed using a fluorometric assay for γ-cleavage.
Cultured cells or mouse brain were lysed in ice-cold lysis buffer described above, and an aliquot corresponding to 50 μg of total protein was electrophoretically separated using 12% Tris-HCl or 16.5% Tris-tricine gels. […] Densitometric analysis was done as previously described using a FluorS Multiimager with Quantity One™ software. […]

`O=c1cc(-c2ccc(O)c(O)c2)oc2cc(O)cc(O)c12` [luteolin]: the γ-secretase cleavage activity entry was “lowered γ-secretase cleavage activity in both a dose and time dependent fashion”.

(Values after patent publication US8802638B1, “Flavonoid treatment of glycogen synthase kinase-based disease” (University of South Florida, priority 2007, dated 2014).)
